Measurements taken from patent publication US20260209248A1, “INHIBITORS OF KIF18A AND USES THEREOF” (Insilico Medicine IP Limited, priority 2022, published 2026).

Target: T1, KIF18A (Homo sapiens, UniProt Q8NI77)
T1 sequence (Q8NI77 1-898): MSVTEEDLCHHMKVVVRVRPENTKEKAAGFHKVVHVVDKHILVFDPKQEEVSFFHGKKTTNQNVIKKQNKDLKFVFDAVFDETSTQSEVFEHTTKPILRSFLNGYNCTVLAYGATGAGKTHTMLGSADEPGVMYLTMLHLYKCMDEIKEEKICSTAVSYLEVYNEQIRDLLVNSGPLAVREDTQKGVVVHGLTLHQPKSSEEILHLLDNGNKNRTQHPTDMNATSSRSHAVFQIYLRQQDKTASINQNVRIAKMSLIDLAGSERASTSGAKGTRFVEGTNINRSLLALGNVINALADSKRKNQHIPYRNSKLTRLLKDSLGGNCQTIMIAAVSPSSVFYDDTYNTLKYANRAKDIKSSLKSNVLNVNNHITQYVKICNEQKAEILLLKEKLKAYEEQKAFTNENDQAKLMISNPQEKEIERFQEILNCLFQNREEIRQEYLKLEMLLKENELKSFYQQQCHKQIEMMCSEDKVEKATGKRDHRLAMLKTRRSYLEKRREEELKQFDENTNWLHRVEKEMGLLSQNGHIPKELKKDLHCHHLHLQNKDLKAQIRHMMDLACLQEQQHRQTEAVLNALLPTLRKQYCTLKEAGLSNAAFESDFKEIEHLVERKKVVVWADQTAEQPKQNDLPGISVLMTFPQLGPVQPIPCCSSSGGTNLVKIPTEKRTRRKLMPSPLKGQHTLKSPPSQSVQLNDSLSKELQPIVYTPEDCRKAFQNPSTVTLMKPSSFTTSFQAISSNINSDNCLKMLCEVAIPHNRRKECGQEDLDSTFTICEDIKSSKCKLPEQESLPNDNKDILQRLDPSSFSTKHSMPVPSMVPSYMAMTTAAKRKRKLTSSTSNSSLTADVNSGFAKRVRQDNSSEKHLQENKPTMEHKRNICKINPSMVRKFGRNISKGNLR
Assay: KIF18A Assay (ADP Glo luminescence)
Type: biochemical
Conditions: enzyme pre-incubated 15 min at 25° C., ATP reaction 60 min, 10 pts 1:3 dilution
Description: The KIF18A assay was performed as follows:
1.1. Prepared 1× kinase Buffer 1.2. […] 1.3. Data analysis−Calculated IC50 and plot dose-response curve of compounds: • Calculated IC50 by fitting % Inhibition values and log of compound concentrations to nonlinear regression (dose response−variable slope) with GraphPad 6.0.
[formula] • X: log of inhibitor concentration; Y: % Inhibition

For `O=C(Nc1ccnc2c1OCC1COCCN21)c1ccc(NS(=O)(=O)CCO)cc1N1CCC2(CC1)CC2` (stereo not drawn) [EX01, 4-((2-hydroxyethyl)sulfonamido)-2-(6-azaspiro[2.5]octan-6-yl)-N-(6a,7,9,10-tetrahydro-6H-[1,4]oxazino[4,3-d]pyrido[3,2-b][1,4]oxazin-4-yl)benzamide], the IC50 was less than 0.05 µM.
Compound `CN1CCCOc2c(NC(=O)c3ccc(NS(=O)(=O)CCO)cc3N3CCC4(CC3)CC4)ccnc21` [EX02, 4-((2-hydroxyethyl)sulfonamido)-N-(5-methyl-2,3,4,5-tetrahydropyrido[3,2-b][1,4]oxazepin-9-yl)-2-(6-azaspiro[2.5]octan-6-yl)benzamide] has an IC50 of less than 0.05 µM.
`O=C(Nc1ccc2c(n1)N1CCOCC1CO2)c1ccc(NS(=O)(=O)CCO)cc1N1CCC2(CC1)CC2` (stereo not drawn) [EX03, 4-((2-hydroxyethyl)sulfonamido)-2-(6-azaspiro[2.5]octan-6-yl)-N-(6a,7,9,10-tetrahydro-6H-[1,4]oxazino[4,3-d]pyrido[3,2-b][1,4]oxazin-2-yl)benzamide] was tested, and the IC50 was less than 0.05 µM.
For `O=C(Nc1cccn(CCCC(F)(F)F)c1=O)c1ccc(NS(=O)(=O)CCO)cc1N1CCC2(CC1)CC2` [EX04, 4-((2-hydroxyethyl)sulfonamido)-N-(2-oxo-1-(4,4,4-trifluorobutyl)-1,2-dihydropyridin-3-yl)-2-(6-azaspiro[2.5]octan-6-yl)benzamide], the IC50 was 0.05 to 0.5 µM.
`O=C(Nc1ccc(=O)n(C2CCOCC2)n1)c1ccc(NS(=O)(=O)CCO)cc1N1CCC2(CC1)CC2` [EX05, 4-((2-hydroxyethyl)sulfonamido)-N-(6-oxo-1-(tetrahydro-2H-pyran-4-yl)-1,6-dihydropyridazin-3-yl)-2-(6-azaspiro[2.5]octan-6-yl)benzamide] gave an IC50 of 0.05 to 0.5 µM.
Compound `O=C(Nc1ccc(=O)n(C2CCOCC2)c1)c1ccc(NS(=O)(=O)CCO)cc1N1CCC2(CC1)CC2` [EX06, 4-((2-hydroxyethyl)sulfonamido)-N-(6-oxo-1-(tetrahydro-2H-pyran-4-yl)-1,6-dihydropyridin-3-yl)-2-(6-azaspiro[2.5]octan-6-yl)benzamide] has an IC50 of 0.5 to 15 µM.
Work on `O=C(Nc1ccc2c(n1)N1CCC(F)(F)CC1CO2)c1ccc(NS(=O)(=O)CCO)cc1N1CCC2(CC1)CC2` (stereo not drawn) [EX07, N-(8,8-difluoro-6,6a,7,8,9,10-hexahydrodipyrido[3,2-b:1′,2′-d][1,4]oxazin-2-yl)-4-((2-hydroxyethyl)sulfonamido)-2-(6-azaspiro[2.5]octan-6-yl)benzamide] yielded an IC50 of less than 0.05 µM.
`O=C(Nc1ccc(=O)n(CCCC(F)(F)F)n1)c1ccc(NS(=O)(=O)CCO)cc1N1CCC2(CC1)CC2` [EX08, 4-((2-hydroxyethyl)sulfonamido)-N-(6-oxo-1-(4,4,4-trifluorobutyl)-1,6-dihydropyridazin-3-yl)-2-(6-azaspiro[2.5]octan-6-yl)benzamide] gave an IC50 of less than 0.05 µM.
For `O=C(Nc1ccnc2c1OCC1CC(F)(F)CCN21)c1ccc(NS(=O)(=O)CCO)cc1N1CCC2(CC1)CC2` (stereo not drawn) [EX10, N-(8,8-difluoro-6,6a,7,8,9,10-hexahydrodipyrido[3,2-b:1′,2′-d][1,4]oxazin-4-yl)-4-((2-hydroxyethyl)sulfonamido)-2-(6-azaspiro[2.5]octan-6-yl)benzamide], the IC50 was less than 0.05 µM.
`COCCS(=O)(=O)N1CCc2cc(C(=O)Nc3cccc(N4CCOCC4)n3)c(N3CCC4(CC3)CC4)cc21` [EX13, 1-((2-methoxyethyl)sulfonyl)-N-(6-morpholinopyridin-2-yl)-6-(6-azaspiro[2.5]octan-6-yl)indoline-5-carboxamide] showed an IC50 of 0.5 to 15 µM.
`O=C(Nc1cccc(N2CCOCC2)n1)c1cc2c(cc1N1CCC3(CC1)CC3)N(S(=O)(=O)CCO)CC2` [EX14, 1-((2-hydroxyethyl)sulfonyl)-N-(6-morpholinopyridin-2-yl)-6-(6-azaspiro[2.5]octan-6-yl)indoline-5-carboxamide] showed an IC50 of less than 0.05 µM.
Work on `Cc1cc(NC(=O)c2cc3c(cc2N2CCC4(CC2)CC4)N(S(=O)(=O)CCO)CC3)nc(N2CCC(F)(F)CC2)n1` [EX15, N-(2-(4,4-difluoropiperidin-1-yl)-6-methylpyrimidin-4-yl)-1-((2-hydroxyethyl)sulfonyl)-6-(6-azaspiro[2.5]octan-6-yl)indoline-5-carboxamide] yielded an IC50 of less than 0.05 µM.
`O=C(Nc1ccc(=O)n(C2CC(F)(F)C2)n1)c1cc2c(cc1N1CCC3(CC1)CC3)N(S(=O)(=O)CCO)CC2` [EX18, N-(1-(3,3-difluorocyclobutyl)-6-oxo-1,6-dihydropyridazin-3-yl)-1-((2-hydroxyethyl)sulfonyl)-6-(6-azaspiro[2.5]octan-6-yl)indoline-5-carboxamide] was tested, and the IC50 was less than 0.05 µM.
`O=C(Nc1ccnc2c1OCC1CC(F)(F)CCN21)c1cc2c(cc1N1CCC3(CC1)CC3)N(S(=O)(=O)CCO)CC2` (stereo not drawn) [EX19, N-(8,8-difluoro-6,6a,7,8,9,10-hexahydrodipyrido[3,2-b:1′,2′-d][1,4]oxazin-4-yl)-1-((2-hydroxyethyl)sulfonyl)-6-(6-azaspiro[2.5]octan-6-yl)indoline-5-carboxamide] was tested, and the IC50 was less than 0.05 µM.
Compound `Cc1cc(NC(=O)c2cc3c(cc2N2CCC4(CC2)CC4)N(S(C)(=O)=O)CC3)nc(N2CCC(F)(F)CC2)n1` [EX20, N-(2-(4,4-difluoropiperidin-1-yl)-6-methylpyrimidin-4-yl)-1-(methylsulfonyl)-6-(6-azaspiro[2.5]octan-6-yl)indoline-5-carboxamide] has an IC50 of 0.05 to 0.5 µM.
Work on `O=C(Nc1ccc(=O)n(C2CCC(F)(F)CC2)n1)c1cc2c(cc1N1CCC3(CC1)CC3)N(S(=O)(=O)CCO)CC2` [EX21, N-(1-(4,4-difluorocyclohexyl)-6-oxo-1,6-dihydropyridazin-3-yl)-1-((2-hydroxyethyl)sulfonyl)-6-(6-azaspiro[2.5]octan-6-yl)indoline-5-carboxamide] yielded an IC50 of less than 0.05 µM.
Compound `CC(C)n1nc(NC(=O)c2cc3c(cc2N2CCC4(CC2)CC4)N(S(=O)(=O)CCO)CC3)ccc1=O` [EX22, 1-((2-hydroxyethyl)sulfonyl)-N-(1-isopropyl-6-oxo-1,6-dihydropyridazin-3-yl)-6-(6-azaspiro[2.5]octan-6-yl)indoline-5-carboxamide] has an IC50 of less than 0.05 µM.
In the case of `Cc1cc(NC(=O)c2cc3c(cc2N2CCC4(CC2)CC4)N(C(=O)CCO)CC3)nc(N2CCC(F)(F)CC2)n1` [EX25, N-(2-(4,4-difluoropiperidin-1-yl)-6-methylpyrimidin-4-yl)-1-(3-hydroxypropanoyl)-6-(6-azaspiro[2.5]octan-6-yl)indoline-5-carboxamide], the IC50 is reported as 0.5 to 15 µM.
